Laboratory results taken from patent US5242942A, “Anticonvulsant fructopyranose cyclic sulfites and sulfates” (McNeilab, Inc., priority 1992, dated 1993).

Key:
[1] = rat diuresis study; assay type: in vivo, rat (male Wistar); conditions: 6.3 mg/kg PO, average of five animals
Text: Evidence for the inhibition of carbonic anhydrase by compounds of the formula (I) can also be obtained by a diuresis study, such as described by A. Weiner in Goodman and Gilman's The Pharmacological Basis of Therapeutics, 8th ed.; Goodman Gilman, A.; Rall, T. W.; Nies, A. S.; Taylor, P., Eds.; Pergamon Press: New York, 1990; pp 716-718. An increase in urine akalinity accompanied with an increase in water intake and urine output provides an indirect indication of carbonic anhydrase inhibition activity. Male Wistar rats having a weight of 250-300 g were dosed orally (PO) and housed in cages that allowed for the quantitative measure of fluid intake and urine output. Water intake and urine output were measured at 24 hours versus control, whereas urine pH, obtained via pH meter, was measured at 4 and 24 hours versus control. The results of this study, which are the average of five animals, are reported below in Table III. […] Such data is also an indication of the usefulness of the compounds of formula (I) as diuretics in the treatment of hypertension, congestive heart failure and other types of edema. The determination of suitable dosages for such compounds for the treatment of hypertension and congestive heart failure and other types of edema is within the skill of the art.

[2] = tested on: Total Acid Output; assay: pylorus-ligated rat test, gastric antisecretory activity; assay type: in vivo, rat (male Charles River Sprague-Dawley derived); conditions: PO, read-out: ED50, inhibition of Total Acid Output
Procedure: The gastric antisecretory activity of the compounds shown in Table II was determined by the pylorus-ligated rat test described by Shay et al. in Gastroenterol. 1954, 26, 906. In this method, male Charles River Sprague-Dawley derived rats weighing 150-300 grams were deprived of food but not water for 18-24 hours prior to use. Water was withheld during the experiment, however. The rats were weighed, lightly anesthetized with ether and the pylorus ligated according to the method of Shay et al., supra. The treatment or vehicle control was then administered intraperitoneally (IP) or orally (PO). When administered by the IP route, the administration was done 30 minutes before ligation. When administered by the PO route, the administration was done prior to ligation (about 1/2 to 3 hours before). Rats were housed two per cage and sacrificed with carbon dioxide 3 hours after ligation. Their stomachs were removed, rinsed, and contents emptied into a graduated centrifuge tube. The tubes were centrifuged, the volume of gastric juice was recorded, and any samples obviously contaminated by feces, food or blood were eliminated. A 1 mL aliquot of gastric juice was titrated with 0.1N NaOH to a pH of 7.0-7.4. The volume of gastric juice secreted, the acid concentration, and the product of the volume times the concentration, i.e. the total amount of acid secreted, were measured. The total acid output was calculated by multiplying the volume of gastric juices collected times the hydrogen ion concentration (amount of NaOH added to a sample to reach a pH of 7.0-7.4) and dividing that value by 10. The mean value of the total acid output for a control group of rats was then subtracted from the mean value of the total acid output for the group of rats tested at the same dose. That value was then divided by the mean value of total acid output for the control group and the resulting number was multiplied by 100 to provide a Percent Inhibition value, which values are reported in Table II. The […] was determined statistically as the dose at which a 50% inhibition would be realized.

[3] = tested on: carbonic anhydrase; assay: carbonic anhydrase inhibition, 18O-exchange mass spectrometry, disrupted hepatocytes; assay type: biochemical; conditions: 250 μM, disrupted male rat hepatocytes, 37° C., pH 7.4, 25 mM aqueous NaHCO3
Procedure: Compounds of formula (I) are also inhibitors of carbonic anhydrase, and as such, are useful in the treatment of glaucoma. Such activity may be determined by mass spectrometry using the ^18 O-exchange technique described by Dodgson and Forster in J. Appl. Physiol. 1983, 55, 1293. Specifically, this assay was conducted by first killing the male rats and then removing their livers. Their livers were placed in a cold physiological saline solution. The liver tissue was then minced with scissors and shaken in a protolytic enzyme solution to promote disassociation of the hepatocytes. The dissociated hepatocytes were then washed in a cold saline solution and used for determination of carbonic anhydrase activity.
[…] The continuous readout of the mass 44 peak gives a continuous record of the constancy of the pH of the reaction medium since the height of the mass 44 peak is very sensitive to pH. The pH of the medium was read from the pH meter and used to calibrate the mass 44 peaks at regular intervals.
An 8 mL glass chamber, with openings for a pH electrode and sample insertion, was used for continuous mass spectrophotometric measurement of C^16 O^16 O (mass 44) and C^16 O^18 O (mass 46) dissolved in aqueous bicarbonate buffer. […] The pH was constantly monitored by a combination glass pH electrode (Radiometer model gK 2641C). […]

Which “Urine pH” value ([1]; 4 hours, control 6.98) does the source give for `CC1(C)O[C@H]2[C@@H]3OS(=O)(=O)O[C@@H]3CO[C@@]2(COS(N)(=O)=O)O1` [Example 1, 2,3-O-(1-Methylethylidene)-4,5-O-sulfonyl-β-D-fructopyranose Sulfamate] here?
The value was 8.99.

What about the “Urine pH” value ([1]; 24 hours, control 6.43) of the same compound?
The value was 7.03.

And the “Water Intake” value ([1]; 24 hours, control 15.0)?
Its value is 24.0 mL.

What about the “Urine Output” value ([1]; 24 hours, control 17.6) of the same compound?
Its value is 28.3 mL.

What about the ED50 [2] of the same compound?
Its ED50 is 20 mg/kg.

And the “inhibition of all hepatocyte carbonic anhydrase” value [3]?
The value was “Maximal inhibition”.
